In article PMC10093686, “Structural insights into acetylated histone ligand recognition by the BDP1 bromodomain of Plasmodium falciparum” (International journal of biological macromolecules, 2022):
“Also recorded” adds a separate entry of the source.

Legend:
[1] = biological target: PfBDP1-BRD (P. falciparum Bromodomain Protein 1 bromodomain); experiment: ITC binding assay of PfBDP1-BRD with histone peptides; design: species or system Plasmodium falciparum; conditions: 5°C, 20 mM sodium phosphate pH 7.5, 150 mM NaCl, 1 mM TCEP, protein (303–488 or 333–456) 100–200 μM in cell, peptide 2.5–5.0 mM in syringe, 1:1 binding model, mean ± SD of three runs, non-binding ligands in duplicate
Experimental: Isothermal titration calorimetry (ITC) experiments were carried out using a MicroCal PEAQ-ITC and a MicroCal iTC200 (Malvern Panalytical). The purified PfBDP1-BRD proteins (containing residues 303–488 or 333–456) were dialyzed for 48 h at 4°C into ITC buffer containing 20 mM sodium phosphate buffer pH 7.5, 150 mM NaCl, and 1 mM TCEP. The dialyzed PfBDP1-BRD (303–488 or 333–456) proteins were added to the sample cell at concentrations of 100–200 μM, and between 2.5 and 5.0 mM of each histone peptide in the ITC dialysis buffer was placed in the injection syringe. A total of 20 injections were carried out, with the parameters set as follows. […] The remaining 19 injections were completed with an injection volume of 2 μL, a reaction time of 4 s, and a 150 s spacing time between each injection. All ITC runs were carried out at 5°C with a differential power (DP) value of 10, the feedback set to high, at a stirring speed of 750 RPM, and with an initial delay for the reaction set to 60 s.
The ITC data obtained were analyzed using the MicroCal PEAQ-ITC 200 analysis software provided with the instrument (Malvern Panalytical). The heat of dilutions for the buffer and peptide ligands were obtained from titrating buffer into buffer, buffer into PfBDP1-BRD protein (303–488 and 333–456), and histone peptide into buffer. The heats of dilution for the histone peptides were subtracted from the raw isotherms obtained from the histone peptide and PfBDP1-BRD (303–488 and 333–456) protein titrations. The first injection was discarded from the data analysis, and the data was integrated using a 1:1 binding model assuming a single set of identical binding sites. A Marquandt nonlinear least-squares analysis was used to calculate the binding affinities and N values from the normalized heat changes. Binding experiments were repeated in triplicate for each ligand and the mean KD was calculated from the average of the three runs, with the standard deviation coming from the mean.

PfBDP1-BRD (303–488) = experiment: NMR chemical shift perturbation (2D 15N-1H HSQC) titration with histone peptides; assay type: binding, Plasmodium falciparum; conditions: 0.3–0.5 mM 15N-labeled PfBDP1-BRD (303–488); 20 mM Tris-HCl pH 6.8, 150 mM NaCl, 10 mM DTT, 10% D2O; molar ratios 1:0, 1:0.5, 1:1, 1:2.5, 1:5; 25°C; result in words
Experimental: Chemical shift perturbation experiments were performed using 0.3–0.5 mM of uniformly ^15N-labeled PfBDP1-BRD (303–488) in NMR buffer containing 20 mM Tris-HCl pH 6.8, 150 mM NaCl, 10 mM DTT and 10% D2O. […] Two-dimensional ^15N−^1H HSQC (heteronuclear single quantum coherence) experiments for all samples were acquired on Bruker Avance III spectrometer equipped with a cryogenic 1.7 mm probe. The temperature of the samples was regulated at 25°C throughout data collection. All spectra were processed using TopSpin (Bruker) as described previously and analyzed using NMRFAM-SPARKY [48].

Substance: ARTKQTAR(Kac)STGGKAPRKQLATKA [H3K9ac, histone H3 peptide (1–24) mono-acetylated at lysine 9]
- PfBDP1-BRD KD [1]: did not observe any interaction; also recorded: No Binding
- Chemical shift perturbations (CSPs) of PfBDP1-BRD backbone amide peaks upon addition of peptide (PfBDP1-BRD (303–488)): did not observe any CSPs

Substance: MEVPGVIGG(Kac)VGGKVGGKVLGLG [H2A.ZK11ac, histone H2A.Z peptide mono-acetylated at K11]
- PfBDP1-BRD KD [1]: No Binding
- Chemical shift perturbations (CSPs) of PfBDP1-BRD backbone amide peaks upon addition of peptide (PfBDP1-BRD (303–488)): absence of CSPs

Substance: MEVPGVIGGKVGG(Kac)VGGKVLGLG [H2A.ZK15ac, histone H2A.Z peptide mono-acetylated at K15]
- PfBDP1-BRD KD [1]: No Binding

Substance: MEVPGVIGGKVGGKVGG(Kac)VLGLG [H2A.ZK19ac, histone H2A.Z peptide mono-acetylated at K19]
- PfBDP1-BRD KD [1]: No Binding

Substance: MEVPGVIGGKVGGKVGGKVLGLG [H2A.Z unmodified, unmodified P. falciparum histone variant H2A.Z peptide]
- PfBDP1-BRD KD [1]: No Binding

Substance: SG(Kac)GPAQKSQAAKKTAGKTLGPR [H2B.ZK3ac, histone H2B.Z peptide mono-acetylated at K3]
- PfBDP1-BRD KD [1]: No Binding

Substance: SGKGPAQ(Kac)SQAAKKTAGKTLGPR [H2B.ZK8ac, histone H2B.Z peptide mono-acetylated at K8]
- PfBDP1-BRD KD [1]: No Binding

Substance: SGKGPAQKSQAA(Kac)KTAGKTLGPR [H2B.ZK13ac, histone H2B.Z peptide mono-acetylated at K13]
- PfBDP1-BRD KD [1]: No Binding

Substance: SGKGPAQKSQAAK(Kac)TAGKTLGPR [H2B.ZK14ac, histone H2B.Z peptide mono-acetylated at K14]
- PfBDP1-BRD KD [1]: No Binding

Substance: SGKGPAQKSQAAKKTAG(Kac)TLGPR [H2B.ZK18ac, histone H2B.Z peptide mono-acetylated at K18]
- PfBDP1-BRD KD [1]: No Binding

Substance: SGKGPAQKSQAAKKTAGKTLGPR [H2B.Z unmodified, unmodified P. falciparum histone variant H2B.Z peptide]
- PfBDP1-BRD KD [1]: No Binding

Substance: SGRGKGG(Kac)GLGKGGAKRHRKVLRD [H4K8ac, histone H4 peptide (1–24) mono-acetylated at K8]
- PfBDP1-BRD KD [1]: No Binding
